Where no end group is shown, it is not given here.
What was measured:
A. hydrophila BCRC 13018 = format: cell-based, Aeromonas hydrophila; details: BCRC 13018, pH 7.4
Experimental: (§1) Escherichia coli for transformation was cultured in LB medium at 37°C.
(§2) Peptides were synthesized by GL Biochem (Shanghai, China) using a solid-phase procedure of Fmoc chemistry. Crude peptides were extracted, lyophilized, and purified by reverse-phase high-performance liquid chromatography (HPLC). The molecular masses and purities of the purified peptides were respectively verified by mass spectroscopy and HPLC. Synthetic peptides at >95% purity were reconstituted in phosphate-buffered saline (PBS; pH 7.4) for the experiments. The TP1 sequence was FDWDSVLKGVEGFVRGYF, the TP2 sequence was […], the TP3 sequence was […], the TP4 sequence was […], the TP5 sequence was […], the epinecidin-1 (Epi-1) sequence was […], and the cod pis 1 sequence was […]. C terminals of all synthetic peptides were amidated. The minimal inhibitory concentration (MIC) was measured for each strain of microorganism listed above. The MICs of the peptides were determined by a broth microdilution analysis based on an online method (http://cmdr.ubc.ca/bobh/methods/MODIFIEDMIC.html; Hancock Laboratory Methods. Department of Microbiology and Immunology, University of British Columbia, British Columbia, Canada) without modification.

E. faecalis BCRC 10066 = format: cell-based, Enterococcus faecalis; details: BCRC 10066, pH 7.4
Experimental: as §1, §2

V. alginolyticus = format: cell-based, Vibrio alginolyticus; details: pH 7.4
Experimental: as §1, §2

P. aeruginosa ATCC 19660 = format: cell-based, Pseudomonas aeruginosa; details: ATCC 19660, pH 7.4
Experimental: as §1, §2

S. agalactiae 819 = format: cell-based, Streptococcus agalactiae; details: 819, pH 7.4
Experimental: as §1, §2

S. agalactiae BCRC 10787 = format: cell-based, Streptococcus agalactiae; details: BCRC 10787, pH 7.4
Experimental: as §1, §2

V. vulnificus 204 = format: cell-based, Vibrio vulnificus; details: 204, pH 7.4
Experimental: as §1, §2

[1] = tested on: methicillin-resistant Staphylococcus aureus (MRSA); details: in vitro assay; synthetic peptide; cited from earlier work
Excerpt: Piscidins are cationic AMPs expressed by fish mast cells. […] The piscidin family includes pleurocidin, moronecidin, chrysophsin, dicentracin, epinecidin-1, and myxinidin. Piscidins have a widespread presence in higher teleosts, so far including 11 species in eight families of the Moronidae, Sciaenidae, Sparidae, Latidae, Siganidae, Belontida ...

human erythrocytes = format: cell-based
Experimental: (§3) The hemolytic activities of Nile tilapia piscidins were determined according to a previous method, [34]. In brief, erythrocytes of tilapia (2×10^7 cells) were washed three times with 0.9% NaCl and incubated with various concentrations of the peptides for 3 h at 37°C. After centrifugation, the absorbance at 545 nm of the suspension was determined. Erythrocytes in PBS (Ablank) and 0.1% Triton X-100 (Atriton) respectively served as the negative and positive controls. The percentage of hemolysis was calculated according to the equation described in a previous publication. The hemolysis assay was performed in triplicate.
Supplementary file pone.0050263.s004.tif: Figure S4 In vitro assays used HeLa (ATCC: CCL-2™), RAW264.7 (ATCC: TIB-71™), and MRC-5 (ATCC: CCL-171™) cells. Tumor cells (HeLa and RAW264.7 cells) and normal cells (MRC-5) were treated with different doses of piscidin peptides (TP1∼5) for 24 h, followed by an MTS assay. Each concentration was repeated in eight wells for three independent experiments. Results are expressed as a percentage of the survival rate of viable cells. Piscidin treatment affected cell viability in a dose-dependent manner. There were significant differences between treatment groups for TP4 and TP3. Data are from three separate experiments. Hemolytic activities of TP1∼5 against human erythrocytes. […]

erythrocytes of tilapia = format: cell-based
Experimental: as §3

Substance | MIC (A. hydrophila BCRC 13018) [µg/mL] | MIC (E. faecalis BCRC 10066) [µg/mL] | MIC (V. alginolyticus) [µg/mL] | MIC (P. aeruginosa ATCC 19660) [µg/mL] | MIC (S. agalactiae 819) [µg/mL] | MIC (S. agalactiae BCRC 10787) [µg/mL] | MIC (V. vulnificus 204) [µg/mL] | MIC [1] [µM] | concentration at which the hemolytic effect began (human erythrocytes) [ng/mL] | concentration at which the hemolytic effect began (erythrocytes of tilapia) [ng/mL] | hemolytic activity toward human erythrocytes (human erythrocytes)
FDWDSVLKGVEGFVRGYF-NH2 [TP1] | >23.57 | >23.57 | >23.57 | >23.57 | >23.57 | >23.57 | >23.57 | – | – | – | –
FFHHIFRGIVHVGKTIHRLVTG [piscidin 1, synthetic piscidin 1, literature values] | – | – | – | – | – | – | – | 3.1 | – | – | –
FIHHIIGGLFSAGKAIHRLIRRRRR-NH2 [TP4] | 1.05 | 8.39 | 0.03 | 0.52 | 2.10 | 0.13 | 0.03 | – | 400 to 800 | 400 to 800 | –
FIHHIIGGLFSVGKHIHSLIHGH-NH2 [TP3] | >19.55 | 19.55 | 2.44 | >19.55 | 9.78 | 0.61 | 2.44 | – | – | – | low hemolytic activity
FIHHIIGWISHGVRAIHRAIHG-NH2 [cod Pis 1, reference compound] | 19.78 | 9.89 | 1.24 | >19.78 | 9.89 | 0.31 | 0.62 | – | – | – | –
GECIWDAIFHGAKHFLHRLVNP-NH2 [TP2] | >19.52 | >19.52 | >19.52 | >19.52 | >19.52 | >19.52 | >19.52 | – | – | – | –
GFIFHIIKGLFHAGKMIHGLV-NH2 [Epi-1, epinecidin-1, reference compound] | >21.41 | >21.41 | 2.68 | 10.70 | >21.41 | 0.33 | 0.67 | – | – | – | –
QLQGKQVSGEVVQKVLQELIQSVAKP-NH2 [TP5] | >17.64 | >17.64 | >17.64 | >17.64 | >17.64 | >17.64 | >17.64 | – | – | – | –

Source: PMC3511469, “Five Different Piscidins from Nile Tilapia, Oreochromis niloticus: Analysis of Their Expressions and Biological Functions” (PLoS ONE, 2012)
